Results taken from patent US10538554B2, “Peptides and uses therefor as antiviral agents” (priority 2015, dated 2020).
Bridge positions count the residues as written; N and C are the ends. Square brackets hold non-standard residues; d marks the D form. Peptide text beside a SMILES is read from it.

Test system: H1N1 A/PR/8-MC/1934
Parameters: species or system BALB/c female mice
Conditions: mouse, in vivo

Structure (SMILES): CC[C@@H](C)[C@H]1NC(=O)[C@@H](Cc2ccccc2)NC(=O)[C@@H]([C@H](C)O)NC(=O)[C@@H](Cc2ccccc2)NC(=O)[C@@H](Cc2c[nH]c3ccccc23)NC(=O)[C@@H]([C@H](C)O)NC(=O)[C@H](NC(=O)[C@H](CCCCN)NC(=O)[C@H](CCCCN)NC(=O)[C@H](CCCNC(=N)N)NC(=O)[C@@H](N)CCCNC(=N)N)CSSC[C@H](C(=O)O)NC(=O)[C@@H](CC(N)=O)NC1=O [PSP IV A17, H-RRKKctwftfinc-OH] (H-RRKK[dC][dT][dW][dF][dT][dF][dI][dN][dC]-OH; disulfide 5-13)
- morbidity of influenza infected mice: completely inhibited the morbidity
